The nature of data set [1]: Solubility in aqueous solutions (Example 10). Particulars: for Solubility in water: Table 12; for solubility: thermodynamic from solid, read-out: Compound 1 Solubility; for Increase in water solubility: relative to Compound 1 as-received (0.0006 mg/mL). The format is physicochemical. As for the experimental part: Crystalline and amorphous Compound 1/polymer formulation solubility was determined in different aqueous media (Tables 8A and 8B).
As mentioned earlier, the high solubility of the Compound 1 sodium salt most probably resulted from the conversion of the Compound 1 to its ionized form. In relation to crystalline Compound 1 (as-received sample), formulations containing amorphous form (Tables 11A and 11B) were more soluble than crystalline form under all studied conditions.

In data set [2] the test system is animal models of asthma. Particulars: in vivo; cited from earlier work.
A short description of data set [3]: Solubility screening in solvents (Example 2). The format is physicochemical. Particulars: thermodynamic from solid, read-out: Compound 1 Solubility; for solubility at 12 h: 12 h room temperature. As for the experimental part:
Before carrying out spray drying experiments, a solvent screening was performed to determine potential solvent that will allow sufficient concentration of Compound 1 in spray drying solution. Approximately 50 mg of Compound 1 was added to 100 mL of each evaluated solvent until visual observation of solution saturation. […]

For data set [4], the system named is moderate persistent asthma. Particulars: Barnes et al., European Respiratory Journal 34, suppl. 53, 2009; cited from earlier work.
A short description of data set [5]: Solubility in USP simulated gastric and intestinal fluids (Example 11). It is filed as physicochemical. The note with it: SGF pH 1.2 and SIF pH 6.8, 37° C. As for the experimental part: The solubilization profile was obtained of various compositions in USP Simulated Gastric Fluid (SGF) and USP Simulated Intestinal Fluid (SIF) with pH 1.2 and 6.8, respectively. […] The concentration of the solution was based on the hypothesis that the test should simulate a dissolution test for a 100 mg dose strength tablet or capsule in 900 ml of dissolution media.
The solubility was tested for the crystalline compound 1 with a purity of 98.9%, and for the amorphous compositions of Examples 6M and 6O (Lots 031 and 033). The following procedure was followed: • A shaking water bath was filled and water temperature left to equilibrate to 37° C. for 24 hours. • USP simulated gastric fluid was prepared as described in the UPS 31, Solutions: Test solutions. • USP simulated intestinal fluid was prepared as described in the UPS 31, Solutions: Test solutions. • The equivalent of 12.5 mg of Compound 1 was weighed and transferred into a 125 mL Erlenmeyer flask, with 100 mL of medium. […]
The amount of dissolved material was determined with respect to a standard and is reported as the percentage of material dissolved with respect to the standard as well as in absolute mg/ml.

Consider 3 molecules from patent publication US8703956B2, “Amorphous (5-fluoro-2-methyl-3-quinolin-2-ylmethyl-indol-1-yl)-acetic acid” (Atopix Therapeutics Limited, priority 2011, dated 2014).

Values after ≈ are worked out from the molar mass of the structure shown. Structures can show the parent of a compound that is named as a salt. Where two headings read alike, the source gives them in different places.

With `Cc1c(Cc2ccc3ccccc3n2)c2cc(F)ccc2n1CC(=O)O` [Compound 1 sodium salt], in data set [1], the Solubility in water was 15370 µg/mL. The “Compound 1 Solubility” value in data set [1] (Water) amounted to 15370 µg/mL; in data set [1] (pH 1.0), 3.6 µg/mL; in data set [1] (pH 4.5), 2605 µg/mL; in data set [1] (pH 6.8 K), 8554 µg/mL; in data set [1] (pH 8.0 K), 5571 µg/mL; in data set [1] (pH 8.0 Na), 1744 µg/mL. The solubility (usually the concentration that dissolves in the medium under given conditions) is more than 30000 µg/mL in data set [1] (Water + 1% SDS, aqueous with cosolvent or surfactant or cyclodextrin, Water + 1% SDS); more than 26000 µg/mL in data set [1] (Water + 1% Tween 20, aqueous with cosolvent or surfactant or cyclodextrin, Water + 1% Tween 20); more than 21000 µg/mL in data set [1] (Water + 1% Tween 80, aqueous with cosolvent or surfactant or cyclodextrin, Water + 1% Tween 80); 4110 µg/mL in data set [1] (pH 6.8 + 1% HTAB, pH 6.8, aqueous with cosolvent or surfactant or cyclodextrin, pH 6.8 + 1% HTAB); 128 µg/mL in data set [1] (pH 6.8 + 1% Tween 20, pH 6.8, aqueous with cosolvent or surfactant or cyclodextrin, pH 6.8 + 1% Tween 20); 3220 µg/mL in data set [1] (pH 6.8 + 1% Tween 80, pH 6.8, aqueous with cosolvent or surfactant or cyclodextrin, pH 6.8 + 1% Tween 80). Besides, in data set [1] (pH 6.8 Na (sodium buffer), pH 6.8, aqueous buffer, pH 6.8 Na), the solubility is 2490 µg/mL. The “Increase in water solubility” value in data set [1] stood at 2561667%.

In data set [1], `Cc1c(Cc2ccc3ccccc3n2)c2cc(F)ccc2n1CC(=O)O` [Compound 1, (5-Fluoro-2-methyl-3-quinolin-2-ylmethyl-indol-1-yl)-acetic acid] came in with a Solubility in water of 0.6 µg/mL (≈ 1.72 µM). For the same molecule, the “Compound 1 Solubility” value in data set [1] (Water) came out at 0.6 µg/mL; in data set [1] (pH 4.5) it was 1.9 µg/mL; in data set [1] (pH 6.8 K), 0.3 µg/mL; in data set [1] (pH 8.0 K), 0.8 µg/mL; in data set [1] (pH 8.0 Na), 0.3 µg/mL. Also, the solubility is 2.1 µg/mL (≈ 6.03 µM) in data set [1] (aqueous medium pH 1.0, pH 1, simulated gastric fluid, pH 1.0) and more than 90000 µg/mL in data set [3] (aqueous buffer, Sodium hydroxide 0.5N, at 45° C.). For the same molecule, the “efficacy in animal models of asthma” value in data set [2] is “effective”. In addition, the solubility at 12 h in data set [3] (aqueous buffer, Tris(hydroxymethyl) aminoethane (1% w/v)) was less than 500 µg/mL; in data set [3] (aqueous with cosolvent or surfactant or cyclodextrin, DMSO/H2O (50/50 v/v)), less than 500 µg/mL; in data set [3] (aqueous with cosolvent or surfactant or cyclodextrin, DMSO/H2O (75/25 v/v)), 2000 to 2500 µg/mL (≈ 5740 to 7180 µM); in data set [3] (aqueous with cosolvent or surfactant or cyclodextrin, Hexadecyltrimethylammonium (0.05% w/v)), less than 500 µg/mL; in data set [3] (aqueous with cosolvent or surfactant or cyclodextrin, Sodium dodecyl sulfate (2% w/v)), less than 500 µg/mL; in data set [3] (aqueous with cosolvent or surfactant or cyclodextrin, Span 80 (1% v/v)), less than 500 µg/mL. The solubility at 12 h in data set [3] (aqueous with cosolvent or surfactant or cyclodextrin, Tween 80 (1% v/v)) is less than 500 µg/mL; in data set [3] (organic solvent or mixture, Carbon tetrachloride), less than 500 µg/mL; in data set [3] (organic solvent or mixture, Chloroform) it was less than 500 µg/mL; in data set [3] (organic solvent or mixture, DMSO/DCM (50/50 v/v)), 1000 to 1500 µg/mL (≈ 2870 to 4310 µM); in data set [3] (organic solvent or mixture, DMSO/DCM (75/25 v/v)), 2500 to 3000 µg/mL (≈ 7180 to 8610 µM); in data set [3] (organic solvent or mixture, DMSO/Ethanol (50/50 v/v)), 500 to 1000 µg/mL (≈ 1440 to 2870 µM). Further, the solubility at 12 h in data set [3] (organic solvent or mixture, DMSO/Ethanol (75/25 v/v)) was 500 to 1000 µg/mL (≈ 1440 to 2870 µM); in data set [3] (organic solvent or mixture, Dichloromethane (DCM)), less than 500 µg/mL; in data set [3] (organic solvent or mixture, Dimethyl sulfoxide (DMSO)), 5500 to 6000 µg/mL (≈ 15800 to 17200 µM); in data set [3] (organic solvent or mixture, Toluene), less than 500 µg/mL; in data set [3] (Purified water) it was less than 500 µg/mL. Besides, the “efficacy in a clinical trial with human asthma patients” value in data set [4] was “effective”. Also, the “solubility in SGF and SIF” value in data set [5] was “very poor solubility”.

As for `Cc1c(Cc2ccc3ccccc3n2)c2cc(F)ccc2n1CC(=O)[O-].[Na+]` [Lot 002], in data set [1], the Solubility in water was found to be 16870 µg/mL. Further, the “Compound 1 Solubility” value in data set [1] (Water) is 16870 µg/mL; in data set [1] (Water + 1% SDS), more than 17000 µg/mL; in data set [1] (Water + 1% Tween 20), more than 22000 µg/mL; in data set [1] (Water + 1% Tween 80) it was more than 14000 µg/mL; in data set [1] (pH 1.0), 9.1 µg/mL; in data set [1] (pH 4.5) it was 5 µg/mL. Also, the “Compound 1 Solubility” value in data set [1] (pH 6.8 + 1% HTAB) stood at 3597 µg/mL; in data set [1] (pH 6.8 + 1% Tween 20), 162.3 µg/mL; in data set [1] (pH 6.8 + 1% Tween 80), 226 µg/mL; in data set [1] (pH 6.8 K), 0.2 µg/mL; in data set [1] (pH 6.8 Na), 0.6 µg/mL; in data set [1] (pH 8.0 K), 2740 µg/mL. In addition, the “Compound 1 Solubility” value in data set [1] (pH 8.0 Na) turned out to be 1782 µg/mL. The “Increase in water solubility” value in data set [1] worked out at 2811667%.
